In US6939541B2, “Cloning, overexpression and therapeutic use of bioactive histidine ammonia lyase” (priority 2000, dated 2005):
pIC50, pKi: −log10 of the molar value.

Columns and labels:
[1] = molecular target: Corynebacteriaceae histidine ammonia lyase (HAL) (Glutamicibacter halophytocola, UniProt A0A5B8IKQ6, DEL117-117/DEL409-409/N172D/R434P/T116S); test: biochemical; format: biochemical, bacterium of the family Corynebacteriaceae; conditions: for pIC50: inhibition not complete, read-out: concentration required to reduce the activity by half
[2] = molecular target: T1, Streptomyces griseus histidine ammonia lyase (Streptomyces griseus, UniProt P24221); test: Inhibition of Streptomyces griseus histidine ammonia lyase; format: biochemical; conditions: equal molar concentration to histidine
Text: HAL has a significant advantage over other histidine ammonia lyases in that it is relatively resistant to inhibition by L-histidinol. L-histidinol is a histidine analog. Because L-histidinol acts as a competitive inhibitor it must be present in high concentrations to have an effect on histidine dependent reactions. Using HAL to reduce the overall histidine pool would therefore greatly increase the effectiveness of L-histidinol. […] Because the Corynebacteriaceae histidine ammonia lyase (HAL) is not inhibited by L-histidinol at therapeutic L-histidinol levels it has a great advantage over other histidine ammonia lyases. […] However, with HAL 20% of activity still is retained when L-histidinol is present at 10 times the concentration of L-histidine.

[3] = molecular target: histidine ammonia lyase isolated from Achromobacter liquidum; conditions: Shibatani et al. 1975; cited from earlier work
[4] = system: Respiratory Syncytial Virus (RSV); test: RSV plaque assay in Hep2 cells; format: cell-based; conditions: L-histidinol 3 mM
Description: Another successful study has been with Respiratory Syncytial Virus (RSV). RSV is another highly infectious disease causing agent. It causes lower respiratory-tract infections such as bronchitis and pneumonia in infancy and early childhood, with nearly 50% of infants suffering from an RSV infection during their first winter. Experiments were performed in tissue culture using the RSV Plaque Assay. The RSV plaque assay is performed similarly to the HSV assay. When performing the RSV assay Hep2 cells are used to propagate the RSV and the cells are grown in EMEM media with 2% FBS, L-glutamine and Antibiotic-Antimycotic. The virus stock is diluted in the medium and added to each well with or without the desired testing compound. The plates are incubated for 2 hours at 37° C. and the virus is removed. 0.5% agarose is added to the media and incubated for 5 days at 37° C. The plates are then fixed with 10% formalin and stained with crystal violet.

[5] = system: Herpes Simplex Virus (HSV); test: HSV plaque assay in VERO cells; format: cell-based
Description: HAL was tested for its anti-viral activity against a variety of infectious viruses in vitro. Effectiveness against Herpes Simplex Virus (HSV) was assayed using the following method. Confluent VERO cells from a T-175 flask are tyrpsinized and split into as many T-25 flasks as the experiment requires. The cells are grown in RPMI-1640 with 10% newborn calf serum-heat inactivated, and L-glutamine. After cells have grown to confluence remove the media and add 0.5 ml of diluted virus (make a series of 1:5 dilution). Dilution of virus is prepared in RPMI-1640 with 2% NCS. The cells are then incubated for 1 hour at 37° C. and then 5 ml of RPMI-1640 with 2% NCS with or without the test compounds is added and incubation is allowed to continue for 1 day. After 24 hours the flasks are sealed with parafilm and frozen at −70° C. The cells are then allowed to thaw at RT to lyse dead intact cells, releasing virus. The viral suspension is then centrifuged to remove cell debris. The viral dilution that caused complete lysis will be used in the plaque assay. The plaque assay is set up by trypsinizing cells from a T-75 and resuspending the cells in RPMI-1640 with 10% NCS and poured into 6-well plate at 2 ml/well. The cells are incubated overnight at 37° C. The media is then removed by suction and 0.2 ml of the viral dilution is added and allowed to incubate for one hour. During this hour the agar is prepared and stored at 41° C. to prevent hardening. The agar concentrations are as follows: ½ vol. 2×BME (Gibco), 2% Pen/Strep, 2% NCS, and 1% agar. After the hour incubation 2 ml of the BME/agar is carefully added to the wells, so as not to disturb the cell monolayer. The plate is left at RT for twenty to thirty minutes to allow the agar to harden, and then the cells are incubated for 48 hours at 37° C. The cells are then stained used BME/agar containing neutral red. The BME/agar is prepared as before with the addition of neutral red stain (Gibco) to a final concentration of 5%. […] Plaques are then counted and the cells fixed for a permanent record.

[6] = molecular target: T1, Streptomyces griseus histidine ammonia lyase; conditions: Wu et al.; cited from earlier work

Corynebacteriaceae histidine ammonia lyase (HAL), sequence (A0A5B8IKQ6 entry or part of it T116S/DEL117-117/N172D/DEL409-409/R434P): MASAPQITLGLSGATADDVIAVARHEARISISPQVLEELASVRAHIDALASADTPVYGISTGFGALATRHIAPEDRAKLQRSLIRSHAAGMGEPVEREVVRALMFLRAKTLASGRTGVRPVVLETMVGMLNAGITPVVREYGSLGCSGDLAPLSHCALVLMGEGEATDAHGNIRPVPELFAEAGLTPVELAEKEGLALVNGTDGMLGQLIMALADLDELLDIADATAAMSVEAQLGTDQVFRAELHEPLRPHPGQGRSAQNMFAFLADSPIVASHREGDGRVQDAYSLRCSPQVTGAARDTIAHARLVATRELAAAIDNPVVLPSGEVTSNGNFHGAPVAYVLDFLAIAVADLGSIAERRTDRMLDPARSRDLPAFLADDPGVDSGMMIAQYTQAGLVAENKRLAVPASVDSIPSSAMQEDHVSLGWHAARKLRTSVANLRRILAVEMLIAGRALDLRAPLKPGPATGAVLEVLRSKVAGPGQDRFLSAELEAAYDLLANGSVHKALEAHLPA
T1 sequence (P24221 whole entry): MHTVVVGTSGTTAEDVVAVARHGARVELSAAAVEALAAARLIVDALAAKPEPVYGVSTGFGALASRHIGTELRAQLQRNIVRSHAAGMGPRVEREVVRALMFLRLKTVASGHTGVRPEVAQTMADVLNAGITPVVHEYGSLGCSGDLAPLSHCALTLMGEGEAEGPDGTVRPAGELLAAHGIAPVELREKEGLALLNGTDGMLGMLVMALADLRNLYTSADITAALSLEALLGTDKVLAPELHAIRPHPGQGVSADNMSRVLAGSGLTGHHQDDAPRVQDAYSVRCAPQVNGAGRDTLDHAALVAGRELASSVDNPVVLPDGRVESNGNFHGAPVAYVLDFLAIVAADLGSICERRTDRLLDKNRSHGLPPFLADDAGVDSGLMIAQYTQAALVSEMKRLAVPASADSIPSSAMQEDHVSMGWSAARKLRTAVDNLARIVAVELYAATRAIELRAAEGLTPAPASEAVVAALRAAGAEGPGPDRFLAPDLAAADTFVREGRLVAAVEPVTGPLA

N[C@@H](CCC(=O)N[C@@H](CS)C(=O)NCC(=O)O)C(=O)O [reduced glutathione]
pIC50 [1]: 1.82

O=C(O)CN(CCN(CC(=O)O)CC(=O)O)CC(=O)O [EDTA]
inhibition of the HAL reaction ([1]; concentrations as low as 1 mM): completely inhibit | reversibility of the inhibition ([1]; presence of Mn^2+ at 1×10^5 M): reversible

O[C@@H](CS)[C@@H](O)CS [DTT]
pIC50 [1]: 1.82

N[C@H](CO)Cc1c[nH]cn1 [L-histidinol]
inhibition of the enzyme [2]: completely inhibit | pKi [3]: 2.34 | inhibition of RSV plaque numbers [4]: no inhibition | pKi [1]: 1.48 to 1.61 | inhibition of HAL ([1]; therapeutic L-histidinol levels): not inhibited | inhibition of HSV ([5]; L-histidinol 0.1 mM): no inhibition | inhibition of HSV ([5]; L-histidinol 0.5 mM): no inhibition | inhibition of HSV ([5]; L-histidinol 1 mM): 5 fold

L-histidinol phosphate
pKi [6]: 3.57
